# Test results: patent US5719132A, “Compositions and methods of treating HIV with d4T, 5-fluorouracil/tegafur, and uracil” (priority 1996, dated 1998)
# Where two headings read alike, the source gives them in different places.
# How the values were obtained:
# [1] = in vitro; details: human, pha-stimulated pbmc
# Experimental: (§1) Cells--Peripheral blood mononuclear cells (PBMC) from normal individuals were prepared by Ficoll-Hypaque gradient centrifugation of venous blood with citrate as an anticoagulant and stimulated with phytoagglutinin (PHA--P, 4 μg/ml, Sigma Chemical, St. Louis, Mo.) and interleukin-2 (IL-2, 1 ng/ml, Upstate Biotechnology Inc., Lake Placid, N.Y.) for three days.
# (§2) To determine the cytotoxicity of 5-FU, uninfected PBMC were incubated with a series of concentrations of 5-FU (i.e., 0.04, 0.16, 0.63, 2.5 and 10 μM). To determine whether 5-FU can affect the cytotoxicity of d4T, uninfected PBMC were incubated with a series of concentrations of d4T (i.e., 0.8, 3.1, 12.5, 50 and 200 μM) containing 0.02 μM of 5-FU. This was repeated with d4T using 5-FU concentrations of 0.1 μM and 0.5 μM, respectively. Cell viability was monitored by trypan blue exclusion assay. Results were expressed as a percentage of living cells in drug testing wells compared to those in untreated control wells. The 50% cytotoxic concentration (CC50) was calculated as the concentration of drugs that decreased the percentage of living cells in drug-treated wells to 50% of those in untreated wells.
# [2] = test system: PHA-PBMC; test: cytotoxicity in PBMC by trypan blue exclusion
# Experimental: as §1, §2
# [3] = test system: clinical HIV-1 isolate JEW; test: anti-HIV activity (p24 production) in PHA-stimulated PBMC, clinical isolate JEW; format: cell-based; details: for EC50: Human immunodeficiency virus 1, PBMC, mean of three experiments; for Fold Enhancement (d4T anti-HIV activity): Table 1; for Fold Enhancement (ddI anti-HIV activity): Table 2
# Source text: .cndot."a" refers to the EC50 data as representing the mean values from three experiments, with duplicate determinations in each experiment.
# Virus--A clinical HIV-1 isolate, JEW, was titrated with a infectivity assay [Johnson, V. A. and R. E. Byington. 1990. Infectivity assay, p. 71-76. in A. Aldovini and B. D. Walker (ed.), Techniques in HIV Research. Stockton Press, New York], and used in our experiments.
# Chemicals--d4T was supplied by Bristol-Myers Squibb Company. 5-Fluorouracil(5-FU) was purchased from Sigma.
# 1. PBMC were infected by the clinical isolate JEW at a multiplicity of infection (MOI) of 0.001 at 37° C. for one hour, and then resuspended in RPMI 1640 medium (Gibco, Gaithersburg, Md.) containing 20% fetal bovine serum (FBS, Sigma), 1 ng/ml IL-2 and 2 mM L-glutamine (Gibco) at a concentration of 4×10^6 cells/ml.
# 2. d4T (2 μM) or ddI (40 μM) was serially diluted 1:3 into RPMI 1640 medium with a final volume of 100 μl/well in 96-well plates, and 50 μl of 2.0 μM, 0.8 μM and 0 μM 5-FU were then added to each well.
# 3. 50 μl of 4×10^6 / ml infected PBMC were added to each well in these plates to get a final 1×10^6 cells/ml, and incubated at 37° C.
# 4. Half media (100 μl) from each well were removed and replaced with fresh medium containing same concentrations of drug at day 3 or 4.
# 5. Samples were collected at day 7 and the p24 levels were quantitated using a HIV p24 ELISA kit (Dupont, Boston, Mass.).
# [4] = in vivo; cited from earlier work
# [5] = test system: thymidylate synthetase (TS); details: cited from earlier work
# [6] = test system: human immunodeficiency virus (HIV); details: cited from earlier work
# [7] = test system: HIV; details: cited from earlier work
# [8] = test system: HIV; details: 20 patients treated for up to 24 months; cited from earlier work
# [9] = test system: HIV-1 reverse transcriptase; details: in vitro; cited from earlier work
# [10] = test system: clinical HIV isolate OLR; test: anti-HIV activity in PBMC, clinical isolate OLR; format: cell-based; details: with 0.1 μM 5-FU
# Experimental: The 50% cytotoxicity concentration of 5-FU in PHA--PBMC is approximately 9 μM (i.e. micromolar) as determined by trypan blue staining.
# [11] = clinical studies; cited from earlier work
# [12] = cited from earlier work
# [13] = test system: HIV; details: lowering of endogenous dATP; cited from earlier work
# [14] = test system: degradation of 5-fluorouracil; details: in vitro; cited from earlier work
structure (smiles),measurement,setting,value
"O=c1[nH]cc(F)c(=O)[nH]1 [5-FU, 5-fluorouracil]",CC50,[1],~9 µM
same,toxicity to PBMC,[2]; up to 0.5 μM,non-toxic
same,potentiating effect on d4T cytotoxicity,"[2]; up to 0.5 μM 5-FU, PBMC",no potentiating effect
same,potentiating effect on the anti-HIV activity of ddI,"[3]; up to 0.5 μM 5-FU, PBMC",no potentiating effect
same,antiviral activity alone,"[3]; up to 0.5 μM, PHA-PBMC acutely infected by isolate JEW",no antiviral activity
same,half-life,[4],very short half-life
same,TS inhibition,[5],effective TS inhibitor
"Nc1ccn([C@H]2C=C[C@@H](CO)O2)c(=O)n1 [d4C, 2',3'-dideoxycytidin-2'-ene]",antiviral activity against HIV,[6],demonstrated antiviral activity
"Cc1cn([C@H]2C=C[C@@H](CO)O2)c(=O)[nH]c1=O [d4T, 2',3'-didehydro-3'-deoxythymidine]",antiviral activity against HIV,[6],demonstrated antiviral activity
same,time until CD4 counts and serum p24 levels return to baseline,[7]; duration of anti-viral responses in patients,approximately 6 months
same,CD4 counts,[7]; treated patients,increases in CD4 counts
same,serum p24 levels and infectious HIV titers in PBMC,[7]; treated patients,decreases in both serum p24 levels and infectious HIV titers
same,resistant viruses isolated,[8],no resistant viruses can be isolated
same,inhibition of HIV-1 reverse transcriptase,[9],potent inhibitor
same,fold enhancement of d4T activity,[10],4.5 fold
same,EC50,"[3]; read-out: EC50 of d4T, PHA-stimulated PBMC, isolate JEW, 5-FU 0 μM",98 ± 42 nM
same,EC50,"[3]; read-out: EC50 of d4T, PHA-stimulated PBMC, isolate JEW, with 5-FU 0.2 μM",92 ± 39 nM
same,EC50,"[3]; read-out: EC50 of d4T, PHA-stimulated PBMC, isolate JEW, with 5-FU 0.5 μM",27 ± 15 nM
same,fold enhancement of the anti-HIV activity of d4T,"[3]; with 0.5 μM 5-FU, isolate JEW",≤ 4 fold
same,Fold Enhancement (d4T anti-HIV activity),[3]; with 5-FU 0.2 μM,1 X
same,Fold Enhancement (d4T anti-HIV activity),[3]; with 5-FU 0.5 μM,4 X
same,oral bioavailability,[11],greater than 80%
same,dose-limiting toxicity,[12]; clinical studies,peripheral neuropathy
same,undesirable side effects,"[12]; human, in vivo",peripheral neuropathy
"Nc1ncnc2c1ncn2[C@H]1CC[C@@H](CO)O1 [ddA, 2',3'-dideoxyadenosine]",antiviral activity against HIV,[6],demonstrated antiviral activity
"Nc1ccn([C@H]2CC[C@@H](CO)O2)c(=O)n1 [ddC, 2',3'-dideoxycytidine]",antiviral activity against HIV,[6],demonstrated antiviral activity
"OC[C@@H]1CC[C@H](n2cnc3c(O)ncnc32)O1 [ddI, 2',3'-dideoxyinosine]",antiviral activity against HIV,[6],demonstrated antiviral activity
same,EC50,"[3]; PHA-stimulated PBMC, isolate JEW, 5-FU 0 μM, read-out: EC50 of ddI",100 ± 32 nM
same,EC50,"[3]; PHA-stimulated PBMC, isolate JEW, with 5-FU 0.2 μM, read-out: EC50 of ddI",170 ± 2 nM
same,Fold Enhancement (ddI anti-HIV activity),[3]; with 5-FU 0.2 μM,0.6 X
same,Fold Enhancement (ddI anti-HIV activity),[3]; with 5-FU 0.5 μM,0.7 X
NC(=O)NO [hydroxyurea],effect of hydroxyurea on anti-HIV activity of ddI,[13],enhanced anti-HIV activity of ddI
O=c1cc[nH]c(=O)[nH]1 [uracil],inhibition of degradation of 5-fluorouracil,[14],strongly inhibits the degradation of 5-fluorouracil
